Source: the supplement of paper PMC12350171

Experiments:
Streptococcus salivarius = assay: IC25 growth inhibition; higher = less potent
Outline: (§1)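 Monocultures grown overnight in mGAM were added to pre-reduced plates holding twofold drug dilutions, giving a starting OD578 of 0.01 and 1% DMSO (or water). Growth was followed anaerobically by hourly OD578 readings in a plate reader, with at least three biological replicates. The median growth-curve AUC per concentration was forced to be monotonic. IC25 was the lowest concentration with median AUC below 0.75, reported as a tested interval.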

Collinsella aerofaciens = assay: IC25 growth inhibition; higher = less potent
Outline: as §1

Vibrio cholerae = assay: IC25 growth inhibition; higher = less potent
Outline: as §1

Bacteroides fragilis NT = assay: IC25 growth inhibition; higher = less potent
Outline: as §1

Escherichia coli ED1a = assay: IC25 growth inhibition; higher = less potent
Outline: as §1

[1] = system: Yersinia enterocolitica WA-314; assay: IC25 growth inhibition; higher = less potent
Outline: as §1

Bacteroides vulgatus = assay: IC25 growth inhibition; higher = less potent
Outline: as §1

[2] = system: Streptococcus parasanguinis; assay: IC25 growth inhibition; higher = less potent
Outline: as §1

Dorea formicigenerans = assay: IC25 growth inhibition; higher = less potent
Outline: as §1

[3] = system: Fusobacterium nucleatum subsp. Nucleatum; assay: IC25 growth inhibition; higher = less potent
Outline: as §1

Eubacterium rectale = assay: IC25 growth inhibition; higher = less potent
Outline: as §1

Parabacteroides merdae = assay: IC25 growth inhibition; higher = less potent
Outline: as §1

Clostridium perfringens = assay: IC25 growth inhibition; higher = less potent
Outline: as §1

Ruminococcus gnavus = assay: IC25 growth inhibition; higher = less potent
Outline: as §1

Clostridium bolteae = assay: IC25 growth inhibition; higher = less potent
Outline: as §1

Roseburia intestinalis = assay: IC25 growth inhibition; higher = less potent
Outline: as §1

Coprococcus comes = assay: IC25 growth inhibition; higher = less potent
Outline: as §1

Clostridium ramosum = assay: IC25 growth inhibition; higher = less potent
Outline: as §1

Shigella flexneri = assay: IC25 growth inhibition; higher = less potent
Outline: as §1

[4] = system: Salmonella enterica typhimurium; assay: IC25 growth inhibition; higher = less potent
Outline: as §1

[5] = system: Bacteroides thetaiotaomicron; assay: IC25 growth inhibition; higher = less potent
Outline: as §1

[6] = system: Clostridium saccharolyticum; assay: IC25 growth inhibition; higher = less potent
Outline: as §1

Bacteroides uniformis = assay: IC25 growth inhibition; higher = less potent
Outline: as §1

[7] = system: Yersinia pseudotuberculosis; assay: IC25 growth inhibition; higher = less potent
Outline: as §1

[8] = system: Com21 synthetic gut community; assay: community biomass OD578 after 24 h drug treatment relative to untreated (fraction of untreated control); higher = more community growth; conditions: community: Com21 (Com20 + E. coli ED1a)
Method: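 Com21 (Com20 plus E. coli ED1a) was treated with drug for 24 h under anaerobic conditions in mGAM. Community OD578 was then measured and normalised to untreated Com21; mean of 3 biological replicates.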

[9] = drug pretreatment concentration 2.5 µM
[10] = drug pretreatment concentration 5 µM
[11] = drug pretreatment concentration 10 µM
[12] = drug pretreatment concentration 20 µM
[13] = drug pretreatment concentration 40 µM
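For IC25 growth inhibition in this document: lowest concentration where monotonic median growth AUC falls below 0.75 of drug-free control.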

## Clc1ccccc1C(c1ccccc1)(c1ccccc1)n1ccnc1 [Clotrimazole]
Streptococcus salivarius
  IC25 growth inhibition: > 80 µM
Collinsella aerofaciens
  IC25 growth inhibition: ≤ 40 µM
Vibrio cholerae
  IC25 growth inhibition: > 80 µM
Bacteroides fragilis NT
  IC25 growth inhibition: ≤ 80 µM
Escherichia coli ED1a
  IC25 growth inhibition: > 40 µM
[1]
  IC25 growth inhibition: > 80 µM
Bacteroides vulgatus
  IC25 growth inhibition: ≤ 80 µM
[2]
  IC25 growth inhibition: > 80 µM
Dorea formicigenerans
  IC25 growth inhibition: ≤ 10 µM
[3]
  IC25 growth inhibition: > 40 µM
Eubacterium rectale
  IC25 growth inhibition: ≤ 10 µM
Parabacteroides merdae
  IC25 growth inhibition: ≤ 40 µM
Clostridium perfringens
  IC25 growth inhibition: > 80 µM
Ruminococcus gnavus
  IC25 growth inhibition: ≤ 20 µM
Clostridium bolteae
  IC25 growth inhibition: ≤ 80 µM
Roseburia intestinalis
  IC25 growth inhibition: ≤ 10 µM
Coprococcus comes
  IC25 growth inhibition: ≤ 5 µM
Clostridium ramosum
  IC25 growth inhibition: ≤ 20 µM
Shigella flexneri
  IC25 growth inhibition: > 80 µM
[4]
  IC25 growth inhibition: > 80 µM
[5]
  IC25 growth inhibition: ≤ 80 µM
[6]
  IC25 growth inhibition: ≤ 40 µM
Bacteroides uniformis
  IC25 growth inhibition: ≤ 80 µM
[7]
  IC25 growth inhibition: > 20 µM
[8]; [9]
  community biomass OD578: 0.969
[8]; [10]
  community biomass OD578: 0.989
[8]; [11]
  community biomass OD578: 1.03
[8]; [12]
  community biomass OD578: 1
[8]; [13]
  community biomass OD578: 0.976

## CC(=O)Oc1cccc2c1C(=O)c1c(OC(C)=O)cc(C(=O)O)cc1C2=O [Diacerein]
Streptococcus salivarius
  IC25 growth inhibition: ≤ 10 µM
Collinsella aerofaciens
  IC25 growth inhibition: ≤ 2.5 µM
Vibrio cholerae
  IC25 growth inhibition: ≤ 40 µM
Bacteroides fragilis NT
  IC25 growth inhibition: ≤ 2.5 µM
Escherichia coli ED1a
  IC25 growth inhibition: > 160 µM
[1]
  IC25 growth inhibition: > 160 µM
Bacteroides vulgatus
  IC25 growth inhibition: ≤ 2.5 µM
[2]
  IC25 growth inhibition: ≤ 10 µM
Dorea formicigenerans
  IC25 growth inhibition: < 1.25 µM
[3]
  IC25 growth inhibition: ≤ 10 µM
Eubacterium rectale
  IC25 growth inhibition: < 1.25 µM
Parabacteroides merdae
  IC25 growth inhibition: < 1.25 µM
Clostridium perfringens
  IC25 growth inhibition: ≤ 20 µM
Ruminococcus gnavus
  IC25 growth inhibition: ≤ 10 µM
Clostridium bolteae
  IC25 growth inhibition: ≤ 2.5 µM
Roseburia intestinalis
  IC25 growth inhibition: < 1.25 µM
Coprococcus comes
  IC25 growth inhibition: ≤ 20 µM
Clostridium ramosum
  IC25 growth inhibition: ≤ 10 µM
Shigella flexneri
  IC25 growth inhibition: > 160 µM
[4]
  IC25 growth inhibition: > 160 µM
[5]
  IC25 growth inhibition: ≤ 2.5 µM
[6]
  IC25 growth inhibition: ≤ 2.5 µM
Bacteroides uniformis
  IC25 growth inhibition: ≤ 5 µM
[7]
  IC25 growth inhibition: ≤ 160 µM
[8]; [11]
  community biomass OD578: 0.936
[8]; [12]
  community biomass OD578: 0.913
[8]; [13]
  community biomass OD578: 0.728
[8]; drug pretreatment concentration 80 µM
  community biomass OD578: 0.337
[8]; drug pretreatment concentration 160 µM
  community biomass OD578: 0.284

## O=c1oc2ccccc2c(O)c1Cc1c(O)c2ccccc2oc1=O [Dicumarol]
Streptococcus salivarius
  IC25 growth inhibition: ≤ 20 µM
Collinsella aerofaciens
  IC25 growth inhibition: > 80 µM
Vibrio cholerae
  IC25 growth inhibition: ≤ 80 µM
Bacteroides fragilis NT
  IC25 growth inhibition: ≤ 20 µM
Escherichia coli ED1a
  IC25 growth inhibition: > 40 µM
[1]
  IC25 growth inhibition: > 80 µM
Bacteroides vulgatus
  IC25 growth inhibition: ≤ 20 µM
[2]
  IC25 growth inhibition: ≤ 10 µM
Dorea formicigenerans
  IC25 growth inhibition: > 80 µM
[3]
  IC25 growth inhibition: ≤ 80 µM
Eubacterium rectale
  IC25 growth inhibition: > 80 µM
Parabacteroides merdae
  IC25 growth inhibition: ≤ 80 µM
Clostridium perfringens
  IC25 growth inhibition: ≤ 20 µM
Ruminococcus gnavus
  IC25 growth inhibition: ≤ 80 µM
Clostridium bolteae
  IC25 growth inhibition: > 80 µM
Roseburia intestinalis
  IC25 growth inhibition: > 80 µM
Coprococcus comes
  IC25 growth inhibition: > 80 µM
Clostridium ramosum
  IC25 growth inhibition: ≤ 40 µM
Shigella flexneri
  IC25 growth inhibition: > 80 µM
[4]
  IC25 growth inhibition: > 80 µM
[5]
  IC25 growth inhibition: ≤ 80 µM
[6]
  IC25 growth inhibition: ≤ 40 µM
Bacteroides uniformis
  IC25 growth inhibition: ≤ 20 µM
[7]
  IC25 growth inhibition: > 80 µM
[8]; [9]
  community biomass OD578: 0.966
[8]; [10]
  community biomass OD578: 0.965
[8]; [11]
  community biomass OD578: 0.958
[8]; [12]
  community biomass OD578: 0.956
[8]; [13]
  community biomass OD578: 0.962
